In US20090137572A1, “2-substituted-4-heteroaryl-pyrimidines useful for the treatment of proliferative disorders” (priority 2004, published 2009):
One block for each compound: values may come before it.

How the values were obtained:
p70 S6K = p70 S6K (Homo sapiens, UniProt P23443); test: Kinase selectivity profile, p70 S6K; type: biochemical; details: 5 μM test compound, compared to control; ATP 20 μM
Protocol: (§1) The kinase selectivity profiles of selected example compounds were determined, essentially as described (Bain, J.; McLauchlan, H.; Elliott, M.; Cohen, P. Biochemical Journal, 2003, 371, 199.); the results are shown in Tables 3 & 4. For the assays shown in Table 3, the kinases were assayed at the following ATP concentrations: SAPK4, PKBΔph, GSK3b, SAPK3, CK2, MKK1, PIM2, IKKB, ERK8, and PRK2 at 5 μM; JNK, PRAK, ROCK-II, SAPK2b, CDK2, CHK1, MSK1, CSK, P70S6K, PKA, CK1, MAPKAP-K2, SGK, PKCa, PDK1, NEK 7, and MAPKAP-K3 at 20 μM; SAPK2a, LCK, AMPK, MAPK2, DYRK1a, MAPKAP-K1a, NEK-6, NEK2a, PBK, CAMK-1, SRPK-1, JNK3, MNK2, RSK2, MNK1, PKBB, and SmMLCK at 50 μM. For the assays in Table 4 the ATP concentration was 100 μM throughout.

PDK1 = PDK1 (Homo sapiens, UniProt O15530); test: Kinase selectivity profile, PDK1; type: biochemical; details: 5 μM test compound, compared to control; ATP 20 μM
Protocol: as §1

GSK3b = GSK3b (Homo sapiens, UniProt P49841); test: Kinase selectivity profile, GSK3b; type: biochemical; details: 5 μM test compound, compared to control; ATP 5 μM
Chain of GSK3b (P49841 whole entry, species assumed): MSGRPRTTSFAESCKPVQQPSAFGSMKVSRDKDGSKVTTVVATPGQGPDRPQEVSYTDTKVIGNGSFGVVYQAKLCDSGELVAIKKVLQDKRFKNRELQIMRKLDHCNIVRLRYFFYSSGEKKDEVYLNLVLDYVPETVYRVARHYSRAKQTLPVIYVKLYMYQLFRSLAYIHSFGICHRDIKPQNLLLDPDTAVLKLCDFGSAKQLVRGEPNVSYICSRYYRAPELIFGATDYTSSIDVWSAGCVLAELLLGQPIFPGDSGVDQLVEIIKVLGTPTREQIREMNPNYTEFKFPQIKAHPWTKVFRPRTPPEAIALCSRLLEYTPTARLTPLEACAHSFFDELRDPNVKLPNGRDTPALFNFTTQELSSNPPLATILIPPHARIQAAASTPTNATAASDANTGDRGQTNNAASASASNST
Protocol: as §1

CHK1 = CHK1 (Homo sapiens, UniProt O14757); test: Kinase selectivity profile, CHK1; type: biochemical; details: 5 μM test compound, compared to control; ATP 20 μM
Chain of CHK1 (O14757 whole entry, species assumed): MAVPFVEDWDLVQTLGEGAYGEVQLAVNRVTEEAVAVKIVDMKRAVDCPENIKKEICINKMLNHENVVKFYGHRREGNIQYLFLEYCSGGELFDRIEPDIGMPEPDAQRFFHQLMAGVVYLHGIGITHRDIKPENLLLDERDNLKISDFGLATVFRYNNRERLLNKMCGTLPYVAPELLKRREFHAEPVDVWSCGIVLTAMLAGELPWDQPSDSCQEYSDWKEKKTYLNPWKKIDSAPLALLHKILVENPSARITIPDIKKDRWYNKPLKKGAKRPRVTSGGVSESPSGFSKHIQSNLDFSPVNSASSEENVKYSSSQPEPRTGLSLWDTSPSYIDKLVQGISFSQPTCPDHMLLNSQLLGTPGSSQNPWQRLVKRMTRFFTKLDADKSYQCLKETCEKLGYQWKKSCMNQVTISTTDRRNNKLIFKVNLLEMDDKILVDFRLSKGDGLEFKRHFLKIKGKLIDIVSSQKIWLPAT
Protocol: as §1

MAPKAP-K1b = MAPKAP-K1b (Homo sapiens, UniProt P51812); test: Kinase selectivity profile, MAPKAP-K1b; type: biochemical; details: 5 μM test compound, compared to control
Protocol: as §1

NEK7 = NEK7 (Homo sapiens, UniProt Q8TDX7); test: Kinase selectivity profile, NEK7; type: biochemical; details: 5 μM test compound, compared to control; ATP 20 μM
Chain of NEK7 (Q8TDX7 whole entry, species assumed): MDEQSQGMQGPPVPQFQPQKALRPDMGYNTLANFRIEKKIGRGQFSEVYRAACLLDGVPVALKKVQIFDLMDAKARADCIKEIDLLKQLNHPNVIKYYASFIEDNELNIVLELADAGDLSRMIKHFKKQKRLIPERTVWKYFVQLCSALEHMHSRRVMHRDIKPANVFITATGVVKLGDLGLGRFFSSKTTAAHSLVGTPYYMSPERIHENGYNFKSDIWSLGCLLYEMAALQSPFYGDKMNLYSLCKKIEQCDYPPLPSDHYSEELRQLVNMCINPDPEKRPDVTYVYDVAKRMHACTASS
Protocol: as §1

NEK2a = NEK2a (Homo sapiens, UniProt P51955); test: Kinase selectivity profile, NEK2a; type: biochemical; details: 5 μM test compound, compared to control; ATP 50 μM
Chain of NEK2a (P51955 whole entry, species assumed): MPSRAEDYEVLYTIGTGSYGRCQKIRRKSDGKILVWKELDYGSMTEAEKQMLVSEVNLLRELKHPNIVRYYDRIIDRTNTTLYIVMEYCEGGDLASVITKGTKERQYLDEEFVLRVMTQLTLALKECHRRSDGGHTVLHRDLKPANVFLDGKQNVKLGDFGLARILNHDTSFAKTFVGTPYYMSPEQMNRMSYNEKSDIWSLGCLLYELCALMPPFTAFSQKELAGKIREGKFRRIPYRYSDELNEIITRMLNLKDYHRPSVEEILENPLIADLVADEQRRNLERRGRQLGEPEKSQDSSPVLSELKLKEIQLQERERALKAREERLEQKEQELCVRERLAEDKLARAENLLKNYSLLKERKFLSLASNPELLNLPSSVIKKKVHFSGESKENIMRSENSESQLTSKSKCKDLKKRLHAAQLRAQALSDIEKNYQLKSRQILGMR
Protocol: as §1

PKCa = PKCa (Homo sapiens, UniProt P17252); test: Kinase selectivity profile, PKCa; type: biochemical; details: 5 μM test compound, compared to control; ATP 20 μM
Protocol: as §1

MKK1 = MKK1 (Homo sapiens, UniProt Q02750); test: Kinase selectivity profile, MKK1; type: biochemical; details: 5 μM test compound, compared to control; ATP 5 μM
Chain of MKK1 (Q02750 whole entry, species assumed): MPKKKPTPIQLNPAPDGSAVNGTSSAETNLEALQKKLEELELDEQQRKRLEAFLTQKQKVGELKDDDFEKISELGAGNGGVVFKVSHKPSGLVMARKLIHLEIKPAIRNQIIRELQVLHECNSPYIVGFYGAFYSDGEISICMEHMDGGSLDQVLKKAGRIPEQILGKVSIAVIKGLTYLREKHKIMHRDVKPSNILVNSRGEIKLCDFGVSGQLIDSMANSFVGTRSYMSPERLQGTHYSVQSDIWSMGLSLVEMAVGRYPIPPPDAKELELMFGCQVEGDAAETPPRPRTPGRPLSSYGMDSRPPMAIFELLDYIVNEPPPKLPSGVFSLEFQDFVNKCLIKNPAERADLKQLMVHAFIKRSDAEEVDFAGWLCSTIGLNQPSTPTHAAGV
Protocol: as §1

MAPKAP-K1a = MAPKAP-K1a (Homo sapiens, UniProt Q15418); test: Kinase selectivity profile, MAPKAP-K1a; type: biochemical; details: 5 μM test compound, compared to control; ATP 50 μM
Chain of MAPKAP-K1a (Q15418 whole entry, species assumed): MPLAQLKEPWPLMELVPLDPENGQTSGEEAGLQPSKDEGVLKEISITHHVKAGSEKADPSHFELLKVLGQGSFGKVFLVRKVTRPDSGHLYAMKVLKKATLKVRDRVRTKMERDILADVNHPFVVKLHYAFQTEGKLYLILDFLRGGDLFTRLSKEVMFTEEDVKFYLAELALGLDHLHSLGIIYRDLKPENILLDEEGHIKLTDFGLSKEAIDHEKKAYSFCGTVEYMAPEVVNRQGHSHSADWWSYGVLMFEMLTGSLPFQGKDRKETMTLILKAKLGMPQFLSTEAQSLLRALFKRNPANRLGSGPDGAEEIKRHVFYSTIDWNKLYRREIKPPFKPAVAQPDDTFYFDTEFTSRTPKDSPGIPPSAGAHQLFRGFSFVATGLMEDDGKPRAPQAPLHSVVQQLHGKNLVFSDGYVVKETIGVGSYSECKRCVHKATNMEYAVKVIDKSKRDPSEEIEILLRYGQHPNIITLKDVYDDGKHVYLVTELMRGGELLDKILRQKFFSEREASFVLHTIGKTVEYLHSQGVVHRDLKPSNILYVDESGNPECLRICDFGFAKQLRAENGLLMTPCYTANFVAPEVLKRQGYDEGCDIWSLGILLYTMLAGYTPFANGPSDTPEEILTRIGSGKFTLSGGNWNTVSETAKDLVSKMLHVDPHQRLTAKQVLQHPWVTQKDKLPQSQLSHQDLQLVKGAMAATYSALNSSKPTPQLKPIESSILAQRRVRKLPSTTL
Protocol: as §1

CK2 = test: Kinase selectivity profile, CK2; type: biochemical; details: 5 μM test compound, compared to control; ATP 5 μM
Protocol: as §1

MAPKAP-K3 = MAPKAP-K3 (Homo sapiens, UniProt Q16644); test: Kinase selectivity profile, MAPKAP-K3; type: biochemical; details: 5 μM test compound, compared to control; ATP 20 μM
Chain of MAPKAP-K3 (Q16644 whole entry, species assumed): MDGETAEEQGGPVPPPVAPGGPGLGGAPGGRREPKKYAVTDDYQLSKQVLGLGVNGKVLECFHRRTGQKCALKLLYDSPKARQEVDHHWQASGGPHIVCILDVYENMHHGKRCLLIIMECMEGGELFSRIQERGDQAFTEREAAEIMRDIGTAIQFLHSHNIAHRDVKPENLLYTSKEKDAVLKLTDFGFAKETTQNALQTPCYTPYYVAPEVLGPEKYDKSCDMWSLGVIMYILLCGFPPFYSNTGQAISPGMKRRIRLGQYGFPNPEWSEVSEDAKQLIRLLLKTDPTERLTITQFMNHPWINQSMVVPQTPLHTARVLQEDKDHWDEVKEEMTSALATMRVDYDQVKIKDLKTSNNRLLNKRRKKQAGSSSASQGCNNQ
Protocol: as §1

MAPKAP-K2 = MAPKAP-K2 (Homo sapiens, UniProt P49137); test: Kinase selectivity profile, MAPKAP-K2; type: biochemical; details: 5 μM test compound, compared to control; ATP 20 μM
Protocol: as §1

JNK/SAPK1c = JNK/SAPK1c (Homo sapiens, UniProt P45983); test: Kinase selectivity profile, JNK/SAPK1c; type: biochemical; details: 5 μM test compound, compared to control; ATP 20 μM
Chain of JNK/SAPK1c (P45983 whole entry): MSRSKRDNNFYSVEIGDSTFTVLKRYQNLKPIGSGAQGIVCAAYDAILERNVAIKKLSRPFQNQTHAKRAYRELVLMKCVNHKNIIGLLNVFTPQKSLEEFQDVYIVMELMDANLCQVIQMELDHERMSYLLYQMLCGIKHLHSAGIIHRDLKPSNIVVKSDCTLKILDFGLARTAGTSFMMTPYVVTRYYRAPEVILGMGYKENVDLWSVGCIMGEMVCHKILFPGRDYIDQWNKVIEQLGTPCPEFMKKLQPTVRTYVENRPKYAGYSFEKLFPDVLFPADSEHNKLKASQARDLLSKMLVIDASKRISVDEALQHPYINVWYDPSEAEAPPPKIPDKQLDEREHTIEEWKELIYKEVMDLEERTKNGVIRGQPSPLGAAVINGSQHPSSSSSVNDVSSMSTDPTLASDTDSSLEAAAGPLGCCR
Protocol: as §1

JNK3 = JNK3 (Homo sapiens, UniProt P53779); test: Kinase selectivity profile, JNK3; type: biochemical; details: 5 μM test compound, compared to control; ATP 50 μM
Protocol: as §1

NEK6 = NEK6 (Homo sapiens, UniProt Q9HC98); test: Kinase selectivity profile, NEK6; type: biochemical; details: 5 μM test compound, compared to control; ATP 50 μM
Protocol: as §1

PRK2 = PRK2 (Homo sapiens, UniProt Q16513); test: Kinase selectivity profile, PRK2; type: biochemical; details: 5 μM test compound, compared to control; ATP 5 μM
Protocol: as §1

PKA = PKA (Homo sapiens, UniProt P17612); test: Kinase selectivity profile, PKA; type: biochemical; details: 5 μM test compound, compared to control; ATP 20 μM
Protocol: as §1

IKKb = IKKb (Homo sapiens, UniProt O14920); test: Kinase selectivity profile, IKKb; type: biochemical; details: 5 μM test compound, compared to control; ATP 5 μM
Protocol: as §1

Lck = Lck (Homo sapiens, UniProt P06239); test: Kinase selectivity profile, Lck; type: biochemical; details: 5 μM test compound, compared to control; ATP 50 μM
Protocol: as §1

SRPK1 = SRPK1 (Homo sapiens, UniProt Q96SB4); test: Kinase selectivity profile, SRPK1; type: biochemical; details: 5 μM test compound, compared to control; ATP 50 μM
Protocol: as §1

SAPK2b/p38β2 = SAPK2b/p38β2 (Homo sapiens, UniProt Q15759); test: Kinase selectivity profile, SAPK2b/p38β2; type: biochemical; details: 5 μM test compound, compared to control; ATP 20 μM
Chain of SAPK2b/p38β2 (Q15759 whole entry): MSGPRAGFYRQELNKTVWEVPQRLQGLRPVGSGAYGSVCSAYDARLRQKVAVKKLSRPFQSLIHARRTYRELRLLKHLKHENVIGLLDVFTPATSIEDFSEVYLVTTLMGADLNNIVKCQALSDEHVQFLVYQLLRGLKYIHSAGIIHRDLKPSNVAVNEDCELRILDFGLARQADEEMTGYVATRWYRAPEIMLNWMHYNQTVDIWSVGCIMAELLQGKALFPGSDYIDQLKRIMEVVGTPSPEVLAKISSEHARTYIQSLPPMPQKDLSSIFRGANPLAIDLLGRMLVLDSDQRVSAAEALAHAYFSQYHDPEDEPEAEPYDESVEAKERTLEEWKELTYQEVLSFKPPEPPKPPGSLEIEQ
Protocol: as §1

CDK2-cyclin A = CDK2-cyclin A (Homo sapiens, UniProt P24941); test: Kinase selectivity profile, CDK2/cyclin A; type: biochemical; details: 5 μM test compound, compared to control; ATP 20 μM
Protocol: as §1

MNK1 = MNK1 (Homo sapiens, UniProt Q9BUB5); test: Kinase selectivity profile, MNK1; type: biochemical; details: 5 μM test compound, compared to control; ATP 50 μM
Chain of MNK1 (Q9BUB5 whole entry, species assumed): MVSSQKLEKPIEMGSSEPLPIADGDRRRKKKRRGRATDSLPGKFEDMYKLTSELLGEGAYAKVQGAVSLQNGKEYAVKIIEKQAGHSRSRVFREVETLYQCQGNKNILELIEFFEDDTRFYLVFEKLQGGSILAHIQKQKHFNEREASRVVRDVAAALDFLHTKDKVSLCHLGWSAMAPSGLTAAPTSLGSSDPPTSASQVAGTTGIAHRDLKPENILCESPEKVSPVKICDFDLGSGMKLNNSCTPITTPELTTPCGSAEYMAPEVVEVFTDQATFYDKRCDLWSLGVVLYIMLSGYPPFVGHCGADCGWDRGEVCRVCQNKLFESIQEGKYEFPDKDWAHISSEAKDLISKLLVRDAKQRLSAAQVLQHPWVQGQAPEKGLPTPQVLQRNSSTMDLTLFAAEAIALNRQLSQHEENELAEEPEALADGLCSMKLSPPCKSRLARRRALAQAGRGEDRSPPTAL
Protocol: as §1

PKBb = PKBb (Homo sapiens, UniProt P31751); test: Kinase selectivity profile, PKBb; type: biochemical; details: 5 μM test compound, compared to control; ATP 50 μM
Protocol: as §1

MSK1 = MSK1 (Homo sapiens, UniProt O75582); test: Kinase selectivity profile, MSK1; type: biochemical; details: 5 μM test compound, compared to control; ATP 20 μM
Protocol: as §1

AMPK = test: Kinase selectivity profile, AMPK; type: biochemical; details: 5 μM test compound, compared to control; ATP 50 μM
Protocol: as §1

[1] = biological target: protein kinases (panel of Table 4) (Homo sapiens, UniProt P12931); test: Kinase selectivity profile, kinase inhibition IC50 (Table 4), ATP 100 μM; type: biochemical; details: kinase Src

Chain of p70 S6K (P23443 whole entry): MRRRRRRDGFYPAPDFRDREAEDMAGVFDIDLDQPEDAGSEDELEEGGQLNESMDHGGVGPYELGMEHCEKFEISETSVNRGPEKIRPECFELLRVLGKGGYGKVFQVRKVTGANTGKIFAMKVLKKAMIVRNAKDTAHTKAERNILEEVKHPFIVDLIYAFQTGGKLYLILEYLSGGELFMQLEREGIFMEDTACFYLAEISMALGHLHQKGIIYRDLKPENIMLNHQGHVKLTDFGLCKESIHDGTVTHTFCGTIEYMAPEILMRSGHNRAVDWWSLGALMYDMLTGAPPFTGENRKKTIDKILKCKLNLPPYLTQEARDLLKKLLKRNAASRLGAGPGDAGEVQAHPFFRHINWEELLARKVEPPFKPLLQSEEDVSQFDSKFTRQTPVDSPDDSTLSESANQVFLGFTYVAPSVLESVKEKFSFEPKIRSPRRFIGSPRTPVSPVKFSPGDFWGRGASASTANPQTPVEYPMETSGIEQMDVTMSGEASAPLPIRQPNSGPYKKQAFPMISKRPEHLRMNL

Compound: CCNc1nc(C)c(-c2ccnc(Nc3ccc(N4CCNCC4)cc3)n2)s1 [Compound 59, [4-(2-Ethylamino-4-methyl-thiazol-5-yl)-pyrimidin-2-yl]-(4-piperazin-1-yl-phenyl)-amine]
remaining activity at 5 µM (p70 S6K): 13% | remaining activity at 5 µM (PDK1): 20% | remaining activity at 5 µM (GSK3b): 37% | remaining activity at 5 µM (CHK1): 10% | remaining activity at 5 µM (MAPKAP-K1b): 17% | remaining activity at 5 µM (NEK7): 50% | remaining activity at 5 µM (NEK2a): 9% | remaining activity at 5 µM (PKCa): 33% | remaining activity at 5 µM (MKK1): 25% | remaining activity at 5 µM (MAPKAP-K1a): 14% | Remaining activity (%) CK2 (CK2): 2% | remaining activity at 5 µM (MAPKAP-K3): 87% | remaining activity at 5 µM (MAPKAP-K2): 84% | remaining activity at 5 µM (JNK/SAPK1c): 2% | remaining activity at 5 µM (JNK3): 13% | remaining activity at 5 µM (NEK6): 47% | remaining activity at 5 µM (PRK2): 8% | remaining activity at 5 µM (PKA): 22% | remaining activity at 5 µM (IKKb): 7% | remaining activity at 5 µM (Lck): 1% | remaining activity at 5 µM (SRPK1): 88% | remaining activity at 5 µM (SAPK2b/p38β2): 36% | remaining activity at 5 µM (CDK2-cyclin A): 1% | remaining activity at 5 µM (MNK1): 3% | remaining activity at 5 µM (PKBb): 75% | remaining activity at 5 µM (MSK1): 45% | Remaining activity (%) AMPK (AMPK): 2%

Compound: Cc1nc(CS(=O)(=O)c2cccs2)sc1-c1ccnc(Nc2ccc(N3CCOCC3)cc2)n1 [Compound 138, {4-[4-Methyl-2-(thiophene-2-sulfonylmethyl)-thiazol-5-yl]-pyrimidin-2-yl}-(4-morpholin-4-yl-phenyl)-amine]
remaining activity at 5 µM (p70 S6K): 41% | remaining activity at 5 µM (PDK1): 55% | remaining activity at 5 µM (GSK3b): 21% | remaining activity at 5 µM (CHK1): 55% | remaining activity at 5 µM (MAPKAP-K1b): 48% | remaining activity at 5 µM (NEK7): 79% | remaining activity at 5 µM (NEK2a): 6% | remaining activity at 5 µM (PKCa): 41% | remaining activity at 5 µM (MKK1): 21% | remaining activity at 5 µM (MAPKAP-K1a): 34% | Remaining activity (%) CK2 (CK2): 5% | remaining activity at 5 µM (MAPKAP-K3): 104% | remaining activity at 5 µM (MAPKAP-K2): 84% | remaining activity at 5 µM (JNK/SAPK1c): 10% | remaining activity at 5 µM (JNK3): 15% | remaining activity at 5 µM (NEK6): 80% | remaining activity at 5 µM (PRK2): 78% | remaining activity at 5 µM (PKA): 29% | remaining activity at 5 µM (IKKb): 34% | remaining activity at 5 µM (Lck): 7% | remaining activity at 5 µM (SRPK1): 110% | remaining activity at 5 µM (SAPK2b/p38β2): 42% | remaining activity at 5 µM (CDK2-cyclin A): 9% | remaining activity at 5 µM (MNK1): 18% | remaining activity at 5 µM (PKBb): 92% | remaining activity at 5 µM (MSK1): 69% | Remaining activity (%) AMPK (AMPK): 28%

melting point: 179 to 180 °C
Compound: COCCNS(=O)(=O)c1cccc(Nc2nccc(-c3sc(N)nc3C)n2)c1 [Compound 55, 3-[4-(2-Amino-4-methyl-thiazol-5-yl)-pyrimidin-2-ylamino]-N-(2-methoxy-ethyl)-benzenesulfonamide]

IC50 [1]: 1200 nM
Compound: CNc1nc(C)c(-c2ccnc(Nc3cccc(S(N)(=O)=O)c3)n2)s1 [Compound 19, 3-[4-(4-Methyl-2-methylamino-thiazol-5-yl)-pyrimidin-2-ylamino]-benzenesulfonamide]
